Reference: article PMC4503722, “Novel Phenotypic Outcomes Identified for a Public Collection of Approved Drugs from a Publicly Accessible Panel of Assays” (PLoS ONE, 2015)
Like-named read-outs stand apart in the source and are kept apart here.

Experiments:
[1] = test system: ECFC/ADSC co-culture cell nuclei number; details: for IC50: read-out: VEGF_ADSC\ECFC Angio Hoechst NucArea summarized IC50
HT-29 = experiment: cells; assay type: cell-based; details: for IC50: read-out: Basal_Viability ATP HT-29 summarized IC50
HCT116 = experiment: cells; assay type: cell-based; details: for IC50: read-out: Basal_Viability ATP HCT116 summarized IC50
SW480 = experiment: cells; assay type: cell-based; details: for IC50: read-out: Basal_Viability ATP SW480 summarized IC50
[2] = test system: endothelial tube formation in co-cultures of ECFCs and ADSCs treated with VEGF; experiment: cells; assay type: cell-based, human; details: for IC50: read-out: VEGF_ADSC\ECFC Angio CD31 TubeArea summarized IC50
Colo320 = experiment: cells; assay type: cell-based; details: for IC50: read-out: Basal_Viability ATP Colo 320 summarized IC50
[3] = test system: HCT116 cells treated with a GSK3β inhibitor; experiment: cells; assay type: cell-based; details: for IC50: read-out: GSK3b inh pretreated_Viability ATP HCT116 summarized IC50
RKO = experiment: cells; assay type: cell-based; details: for IC50: read-out: Basal_Viability ATP RKO summarized IC50
DLD-1 = experiment: cells; assay type: cell-based; details: for IC50: read-out: Basal_Viability ATP DLD-1 summarized IC50
SNU-C1 = experiment: cells; assay type: cell-based; details: for IC50: read-out: Basal_Viability ATP SNU-C1 summarized IC50
[4] = assay number 26, GSK3b inhibitor pretreated
[5] = assay number 28, concentration response
[6] = assay number 25, basal, concentration response
[7] = assay number 24, concentration response
[8] = assay number 27, concentration response
[9] = assay number 26, GSK3b inhibitor pretreated, concentration response
[10] = assay number 29, concentration response
[11] = assay number 23, concentration response
[12] = assay number 30, concentration response

## CNC(=O)Oc1cccc2ccccc12 [NCGC00090680-06]
[1]
  IC50: > 10 µM
HT-29; assay number 28, basal
  IC50: > 20 µM
HCT116; assay number 25, basal
  IC50: > 20 µM
SW480; assay number 24, basal
  IC50: > 20 µM
[2]
  IC50: > 10 µM
Colo320; assay number 27, basal
  IC50: > 20 µM
[3]; [4]
  IC50: > 20 µM
RKO; assay number 29, basal
  IC50: > 20 µM
DLD-1; assay number 23, basal
  IC50: > 20 µM
SNU-C1; assay number 30, basal
  IC50: > 20 µM

## CCOC(=O)/C=C(C)/C=C/C[C@@H](C)CCCC(C)C [NCGC00248275-02]
[1]
  VEGF_ADSC\ECFC Angio Hoechst NucArea IC50/EC50: > 10 µM
HT-29; [5]
  Basal_Viability ATP HT-29 IC50/EC50: > 20 µM
HCT116; [6]
  Basal_Viability ATP HCT116 IC50/EC50: > 20 µM
SW480; [7]
  Basal_Viability ATP SW480 IC50/EC50: > 20 µM
[2]
  VEGF_ADSC\ECFC Angio CD31 TubeArea IC50/EC50: > 10 µM
Colo320; [8]
  Basal_Viability ATP Colo 320 IC50/EC50: > 20 µM
[3]; [9]
  GSK3b inh pretreated_Viability ATP HCT116 IC50/EC50: > 20 µM
RKO; [10]
  Basal_Viability ATP RKO IC50/EC50: > 20 µM
DLD-1; [11]
  Basal_Viability ATP DLD-1 IC50/EC50: > 20 µM
SNU-C1; [12]
  Basal_Viability ATP SNU-C1 IC50/EC50: > 20 µM

## COC(=O)CCCCC(CCSS/C(CCO)=C(\C)N(C=O)Cc1cnc(C)nc1N)SC(C)=O (stereo not shown) [NCGC00319022-01]
[1]
  VEGF_ADSC\ECFC Angio Hoechst NucArea IC50/EC50: > 10 µM
HT-29; [5]
  Basal_Viability ATP HT-29 IC50/EC50: > 20 µM
HCT116; [6]
  Basal_Viability ATP HCT116 IC50/EC50: > 20 µM
SW480; [7]
  Basal_Viability ATP SW480 IC50/EC50: > 20 µM
[2]
  VEGF_ADSC\ECFC Angio CD31 TubeArea IC50/EC50: > 10 µM
Colo320; [8]
  Basal_Viability ATP Colo 320 IC50/EC50: > 20 µM
[3]; [9]
  GSK3b inh pretreated_Viability ATP HCT116 IC50/EC50: > 20 µM
RKO; [10]
  Basal_Viability ATP RKO IC50/EC50: > 20 µM
DLD-1; [11]
  Basal_Viability ATP DLD-1 IC50/EC50: > 20 µM
SNU-C1; [12]
  Basal_Viability ATP SNU-C1 IC50/EC50: > 20 µM

## CC(C)Cn1cnc2c1c(=O)n(C)c(=O)n2C [NCGC00168348-03]
[1]
  VEGF_ADSC\ECFC Angio Hoechst NucArea IC50/EC50: > 10 µM
HT-29; assay number 28, basal
  Basal_Viability ATP HT-29 IC50/EC50: > 20 µM
HCT116; assay number 25, basal
  Basal_Viability ATP HCT116 IC50/EC50: > 20 µM
SW480; assay number 24, basal
  Basal_Viability ATP SW480 IC50/EC50: > 20 µM
[2]
  VEGF_ADSC\ECFC Angio CD31 TubeArea IC50/EC50: > 10 µM
Colo320; assay number 27, basal
  Basal_Viability ATP Colo 320 IC50/EC50: > 20 µM
[3]; [4]
  GSK3b inh pretreated_Viability ATP HCT116 IC50/EC50: > 20 µM
RKO; assay number 29, basal
  Basal_Viability ATP RKO IC50/EC50: > 20 µM
DLD-1; assay number 23, basal
  Basal_Viability ATP DLD-1 IC50/EC50: > 20 µM
SNU-C1; assay number 30, basal
  Basal_Viability ATP SNU-C1 IC50/EC50: > 20 µM

## C=CCCCCCCCCC(=O)OC [NCGC00166231-02]
[1]
  VEGF_ADSC\ECFC Angio Hoechst NucArea IC50/EC50: > 10 µM
HT-29; [5]
  Basal_Viability ATP HT-29 IC50/EC50: > 20 µM
HCT116; [6]
  Basal_Viability ATP HCT116 IC50/EC50: > 20 µM
SW480; [7]
  Basal_Viability ATP SW480 IC50/EC50: > 20 µM
[2]
  VEGF_ADSC\ECFC Angio CD31 TubeArea IC50/EC50: > 10 µM
Colo320; [8]
  Basal_Viability ATP Colo 320 IC50/EC50: > 20 µM
[3]; [9]
  GSK3b inh pretreated_Viability ATP HCT116 IC50/EC50: > 20 µM
RKO; [10]
  Basal_Viability ATP RKO IC50/EC50: > 20 µM
DLD-1; [11]
  Basal_Viability ATP DLD-1 IC50/EC50: > 20 µM
SNU-C1; [12]
  Basal_Viability ATP SNU-C1 IC50/EC50: > 20 µM

## CC(=O)N(CC(O)CN(C(C)=O)c1c(I)c(C(=O)NCC(O)CO)c(I)c(C(=O)NCC(O)CO)c1I)c1c(I)c(C(=O)NCC(O)CO)c(I)c(C(=O)NCC(O)CO)c1I (stereo not shown) [NCGC00179408-03]
[1]
  VEGF_ADSC\ECFC Angio Hoechst NucArea IC50/EC50: > 10 µM
HT-29; assay number 28, basal
  Basal_Viability ATP HT-29 IC50/EC50: > 20 µM
HCT116; assay number 25, basal
  Basal_Viability ATP HCT116 IC50/EC50: > 20 µM
SW480; assay number 24, basal
  Basal_Viability ATP SW480 IC50/EC50: > 20 µM
[2]
  VEGF_ADSC\ECFC Angio CD31 TubeArea IC50/EC50: > 10 µM
Colo320; assay number 27, basal
  Basal_Viability ATP Colo 320 IC50/EC50: > 20 µM
[3]; [4]
  GSK3b inh pretreated_Viability ATP HCT116 IC50/EC50: > 20 µM
RKO; assay number 29, basal
  Basal_Viability ATP RKO IC50/EC50: > 20 µM
DLD-1; assay number 23, basal
  Basal_Viability ATP DLD-1 IC50/EC50: > 20 µM
SNU-C1; assay number 30, basal
  Basal_Viability ATP SNU-C1 IC50/EC50: > 20 µM

## CN(C)c1ccc(C(=C2C=CC(=[N+](C)C)C=C2)c2ccccc2)cc1 [NCGC00013058-02]
[1]
  IC50: 1.72 µM
HT-29
  IC50: 0.00982 µM
HCT116
  IC50: 0.0179 µM
SW480
  IC50: 0.00922 µM
[2]
  IC50: 0.0605 µM
Colo320
  IC50: 0.161 µM
[3]
  IC50: 0.00983 µM
RKO
  IC50: 0.118 µM
DLD-1
  IC50: 0.0218 µM
SNU-C1
  IC50: 0.0354 µM
